From PubChem BioAssay (NCI)
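Assay format: 96-well plates, 48-hour exposure. GI50 is the concentration that inhibits growth by half. The concentration for full growth arrest is given as TGI.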

What was measured:
P388/ADR leukemia = experiment: NCI tumour cell line growth inhibition, 48 h
SN12K1 renal = experiment: NCI tumour cell line growth inhibition, 48 h

O=C(O)c1ccc(C(=O)O)c(C(=O)O)c1.[NH-]C1CCCCC1[NH-].[Pt+2]
GI50 (P388/ADR leukemia): 2150 nM | TGI (P388/ADR leukemia): > 100000 nM | GI50 (SN12K1 renal): 2710 nM | TGI (SN12K1 renal): 19000 nM
